From patent US20230002439A1, “CRYSTALLINE FORMS OF VAMOROLONE” (ReveraGen BioPharma, Inc., priority 2021, published 2023)
Values belong to the compound of their own block, whether it stands above or below them.

Legend:
[1] = Thermogravimetric analysis (TGA); type: physicochemical
Procedure: TGA analyses were carried out on a TA Instruments TGA Q500. Approximately 2.0 mg of samples were placed in a tared platinum or aluminum pan, automatically weighed, and inserted into the TGA furnace. The samples were heated at 10° C./min to a final temperature of 300° C. The purge gas is nitrogen for balance at 40 mL/min and the sample at 60 mL/min, respectively.

[2] = DSC thermal treatment and hot-stage pXRD (Form II vs. Form I); type: physicochemical
Procedure: The melting of vamorolone was performed in a DSC apparatus at a heating rate of 10° C./min. The DSC furnace was programmed to cool at 10° C./min down to −40° C. A second heating cycle at a heating rate of 10° C./min was performed.
The solid samples were examined using an X-ray diffractometer (Bruker D8 advance). The system is equipped with highly-parallel x-ray beams (Göbel Mirror) and a LynxEye detector. The samples were scanned from 3 to 40° 20 at a step size of 0.02° 20 and a time per step of 19.70 seconds. The tube voltage and current were 45 kV and 40 mA, respectively. The sample was transferred from the sample container onto a zero background XRD-holder and gently ground.
DSC analyses were conducted on a TA Instruments Q200. The calibration standard was indium. A sample of 2.0 mg in weight was placed into a TA DSC pan, and weight was accurately recorded. Crimped pans were used for analysis, and the samples were heated under nitrogen (50 mL/min) at a rate of 10° C./min, up to a final temperature of 260° C.
However, the pXRD pattern obtained after the sample was cooled down to room temperature is similar to the initial material. […] It is estimated from DSC and hot-stage pXRD data that the transition temperature could well be above 100° C. […]

[3] = biological target: T1, glucocorticoid receptor (Homo sapiens, UniProt P04150); details: pre-clinical data, background statement; cited from earlier work
T1 sequence (P04150 1-777): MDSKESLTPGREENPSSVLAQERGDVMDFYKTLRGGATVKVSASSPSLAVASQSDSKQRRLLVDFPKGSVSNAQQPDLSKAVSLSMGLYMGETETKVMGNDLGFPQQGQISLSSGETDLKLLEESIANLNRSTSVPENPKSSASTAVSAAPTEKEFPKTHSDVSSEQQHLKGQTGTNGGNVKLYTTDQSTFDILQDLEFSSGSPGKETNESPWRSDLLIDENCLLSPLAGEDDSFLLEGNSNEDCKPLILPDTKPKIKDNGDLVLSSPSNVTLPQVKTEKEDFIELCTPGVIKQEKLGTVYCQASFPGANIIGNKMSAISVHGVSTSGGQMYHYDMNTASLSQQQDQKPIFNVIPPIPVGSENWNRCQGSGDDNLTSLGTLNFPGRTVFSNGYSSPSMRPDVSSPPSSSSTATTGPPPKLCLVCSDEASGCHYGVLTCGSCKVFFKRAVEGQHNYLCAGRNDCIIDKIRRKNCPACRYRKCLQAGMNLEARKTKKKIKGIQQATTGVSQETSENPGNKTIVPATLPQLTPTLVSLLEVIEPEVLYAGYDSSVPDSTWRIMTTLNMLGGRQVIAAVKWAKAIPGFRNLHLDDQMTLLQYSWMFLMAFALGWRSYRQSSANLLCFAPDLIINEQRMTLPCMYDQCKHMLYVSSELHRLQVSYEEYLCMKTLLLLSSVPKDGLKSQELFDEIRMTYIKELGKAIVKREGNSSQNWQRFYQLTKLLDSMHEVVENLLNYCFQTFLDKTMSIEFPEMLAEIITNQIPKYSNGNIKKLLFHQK

[4] = test system: mouse models of inflammatory states; details: multiple mouse models; including loss of growth stunting and loss of bone fragility; cited from earlier work

TGA weight loss ([1]; FIG. 7, temperature not stated): < 0.5% | TGA weight loss ([1]; below about 200° C.): less than 0.5%
SMILES: C[C@@H]1C[C@H]2[C@@H]3CCC4=CC(=O)C=C[C@]4(C)C3=CC[C@]2(C)[C@@]1(O)C(=O)CO [Form IV, 17α,21-dihydroxy-16α-methylpregna-1,4,9(11)-triene-3,20-dione]

relative stability of polymorphs ([2]; below the transition temperature): most stable form
SMILES: C[C@@H]1C[C@H]2[C@@H]3CCC4=CC(=O)C=C[C@]4(C)C3=CC[C@]2(C)[C@@]1(O)C(=O)CO [Form I, 17α,21-dihydroxy-16α-methylpregna-1,4,9(11)-triene-3,20-dione]

TGA weight loss ([1]; below about 225° C.): less than 1%
SMILES: C[C@@H]1C[C@H]2[C@@H]3CCC4=CC(=O)C=C[C@]4(C)C3=CC[C@]2(C)[C@@]1(O)C(=O)CO [Form VII, 17α,21-dihydroxy-16α-methylpregna-1,4,9(11)-triene-3,20-dione]

Second part, the compound before the results:

SMILES: C[C@@H]1C[C@H]2[C@@H]3CCC4=CC(=O)C=C[C@]4(C)C3=CC[C@]2(C)[C@@]1(O)C(=O)CO [Form II, 17α,21-dihydroxy-16α-methylpregna-1,4,9(11)-triene-3,20-dione]
relative stability of polymorphs ([2]; above the transition temperature): most stable

SMILES: C[C@@H]1C[C@H]2[C@@H]3CCC4=CC(=O)C=C[C@]4(C)C3=CC[C@]2(C)[C@@]1(O)C(=O)CO [vamorolone, 17α,21-dihydroxy-16α-methylpregna-1,4,9(11)-triene-3,20-dione]
binding to the glucocorticoid receptor [3]: binds potently | side effect profiles [4]: dramatically improves side effect profiles
